Patent publication US6511961B1, “Cyclic peptides and medicinal use thereof” (Toray Industries, Inc., priority 1997, dated 2003)
Where two headings read alike, the source gives them in different places.

Settings: disulfide bond, 20-membered ring, AgOTf/anisole/TFA, then DMSO/HCl, 50% DMSO-1N HCl, 2 steps

**Q.** For CC[C@H](C)[C@@H]1NC(=O)[C@@H](N)CSSC[C@@H](C(=O)O)NC(=O)[C@H](CC(C)C)NC(=O)[C@H](Cc2ccccn2)NC(=O)[C@H](CC(=O)O)NC1=O [C*IDAla(2-Pyr)LC*], which ring closure, yield after HPLC (from H-Cys(Acm)-Ile-Asp-Ala(2-Pyr)-Leu-Cys(Acm)-OH) is on record?
**A.** 56%

**Q.** Which ring closure, yield after HPLC (from H-Cys(Acm)-Ile-Asp-Cha-Leu-Cys(Acm)-OH) does the source give for CC[C@H](C)[C@@H]1NC(=O)[C@@H](N)CSSC[C@@H](C(=O)O)NC(=O)[C@H](CC(C)C)NC(=O)[C@H](CC2CCCCC2)NC(=O)[C@H](CC(=O)O)NC1=O [C*IDChaLC*] here?
**A.** 34%

**Q.** Which ring closure, yield after HPLC (from H-Cys(Acm)-Ile-Asp-Phe-Ile-Cys(Acm)-OH) does the source give for CC[C@H](C)[C@@H]1NC(=O)[C@H](Cc2ccccc2)NC(=O)[C@H](CC(=O)O)NC(=O)[C@H]([C@@H](C)CC)NC(=O)[C@@H](N)CSSC[C@@H](C(=O)O)NC1=O [C*IDFIC*] here?
**A.** 37%

**Q.** Which ring closure, yield after HPLC (from H-Cys(Acm)-Ile-Asp-Phe-Leu-Cys(Acm)-OH) does the source give for CC[C@H](C)[C@@H]1NC(=O)[C@@H](N)CSSC[C@@H](C(=O)O)NC(=O)[C@H](CC(C)C)NC(=O)[C@H](Cc2ccccc2)NC(=O)[C@H](CC(=O)O)NC1=O [C*IDFLC*] here?
**A.** 50%

**Q.** Which ring closure, yield after HPLC (from H-Cys(Acm)-Ile-Asp-His-Ile-Cys(Acm)-OH) does the source give for CC[C@H](C)[C@@H]1NC(=O)[C@H](Cc2c[nH]cn2)NC(=O)[C@H](CC(=O)O)NC(=O)[C@H]([C@@H](C)CC)NC(=O)[C@@H](N)CSSC[C@@H](C(=O)O)NC1=O [C*IDHIC*] here?
**A.** 50%

**Q.** With CC[C@H](C)[C@@H]1NC(=O)[C@@H](N)CSSC[C@@H](C(=O)O)NC(=O)[C@H](CC(C)C)NC(=O)[C@H](Cc2c[nH]cn2)NC(=O)[C@H](CC(=O)O)NC1=O [C*IDHLC*] as the compound, how does the ring closure, yield after HPLC (from H-Cys(Acm)-Ile-Asp-His-Leu-Cys(Acm)-OH, 0.48 mM) read?
**A.** 73%

**Q.** For CC[C@H](C)[C@@H]1NC(=O)[C@@H](N)CSSC[C@@H](C(N)=O)NC(=O)[C@H](CC(C)C)NC(=O)[C@H](Cc2c[nH]cn2)NC(=O)[C@H](CC(=O)O)NC1=O [C*IDHLC*—NH2], which ring closure, yield after HPLC (from H-Cys(Acm)-Ile-Asp-His-Leu-Cys(Acm)-NH2) is on record?
**A.** 58%

**Q.** With CC[C@H](C)[C@@H]1NC(=O)[C@@H](N)CSSC[C@@H](C(=O)OC)NC(=O)[C@H](CC(C)C)NC(=O)[C@H](Cc2c[nH]cn2)NC(=O)[C@H](CC(=O)O)NC1=O [C*IDHLC—OMe*] as the compound, how does the ring closure, yield after HPLC (from H-Cys(Acm)-Ile-Asp-His-Leu-Cys(Acm)-OMe) read?
**A.** 35%

**Q.** With CC[C@H](C)[C@@H]1NC(=O)[C@@H](N)CSSC[C@@H](C(=O)O)NC(=O)[C@H](c2ccccc2)NC(=O)[C@H](Cc2c[nH]cn2)NC(=O)[C@H](CC(=O)O)NC1=O [C*IDHPhgC*] as the compound, how does the ring closure, yield after HPLC (from H-Cys(Acm)-Ile-Asp-His-Phg-Cys(Acm)-OH) read?
**A.** 37%

**Q.** With CC[C@H](C)[C@@H]1NC(=O)[C@@H](N)CSSC[C@@H](C(=O)O)NC(=O)[C@@H](CC(C)C)NC(=O)[C@H](Cc2c[nH]cn2)NC(=O)[C@H](CC(=O)O)NC1=O [C*IDHdLC*] as the compound, how does the ring closure, yield after HPLC (from H-Cys(Acm)-Ile-Asp-His-dLeu-Cys(Acm)-OH) read?
**A.** 51%

**Q.** For CC[C@H](C)[C@@H]1NC(=O)[C@@H](N)CSSC[C@@H](C(=O)O)NC(=O)[C@@H](c2ccccc2)NC(=O)[C@H](Cc2c[nH]cn2)NC(=O)[C@H](CC(=O)O)NC1=O [C*IDHdPhgC*], which ring closure, yield after HPLC (from H-Cys(Acm)-Ile-Asp-His-dPhg-Cys(Acm)-OH) is on record?
**A.** 37%

**Q.** With CC[C@H](C)[C@@H]1NC(=O)[C@@H](N)CSSC[C@@H](C(=O)O)NC(=O)[C@H](CC(C)C)NC(=O)[C@H](CCc2ccccc2)NC(=O)[C@H](CC(=O)O)NC1=O [C*IDHphLC*] as the compound, how does the ring closure, yield after HPLC (from H-Cys(Acm)-Ile-Asp-Hph-Leu-Cys(Acm)-OH) read?
**A.** 38%

**Q.** For CC[C@H](C)[C@@H]1NC(=O)[C@@H](N)CSSC[C@@H](C(=O)O)NC(=O)[C@H](CC(C)C)NC(=O)[C@H](c2ccccc2)NC(=O)[C@H](CC(=O)O)NC1=O [C*IDPhgLC*], which ring closure, yield after HPLC (from H-Cys(Acm)-Ile-Asp-Phg-Leu-Cys(Acm)-OH) is on record?
**A.** 48%

**Q.** With CC[C@H](C)[C@@H]1NC(=O)[C@@H](N)CSSC[C@@H](C(=O)O)NC(=O)[C@H](CC(C)C)NC(=O)[C@H](C(C)(C)C)NC(=O)[C@H](CC(=O)O)NC1=O [C*IDTleLC*] as the compound, how does the ring closure, yield after HPLC (from H-Cys(Acm)-Ile-Asp-Tle-Leu-Cys(Acm)-OH) read?
**A.** 23%

**Q.** With CC[C@H](C)[C@@H]1NC(=O)[C@@H](N)CSSC[C@@H](C(=O)O)NC(=O)[C@H](CC(C)C)NC(=O)[C@H](Cc2c[nH]c3ccccc23)NC(=O)[C@H](CC(=O)O)NC1=O [C*IDWLC*] as the compound, how does the ring closure, yield after HPLC (from H-Cys(Acm)-Ile-Asp-Trp-Leu-Cys(Acm)-OH) read?
**A.** 47%

**Q.** For CC[C@H](C)[C@@H]1NC(=O)[C@@H](N)CSSC[C@@H](C(=O)O)NC(=O)[C@H](CC(C)C)NC(=O)[C@@H](Cc2c[nH]cn2)NC(=O)[C@H](CC(=O)O)NC1=O [C*IDdHLC*], which ring closure, yield after HPLC (from H-Cys(Acm)-Ile-Asp-dHis-Leu-Cys(Acm)-OH) is on record?
**A.** 74%

**Q.** With CC[C@H](C)[C@@H]1NC(=O)[C@@H](N)CSSC[C@@H](C(=O)O)NC(=O)[C@H](CC(C)C)NC(=O)[C@@H](c2ccccc2)NC(=O)[C@H](CC(=O)O)NC1=O [C*IDdPhgLC*] as the compound, how does the ring closure, yield after HPLC (from H-Cys(Acm)-Ile-Asp-dPhg-Leu-Cys(Acm)-OH) read?
**A.** 8%

**Q.** With CC[C@H](C)[C@@H]1NC(=O)[C@@H](N)CSSC[C@@H](C(=O)O)NC(=O)[C@H](CC(C)C)NC(=O)[C@H](Cc2c[nH]cn2)NC(=O)[C@H](CCC(=O)O)NC1=O [C*IEHLC*] as the compound, how does the ring closure, yield after HPLC (from H-Cys(Acm)-Ile-Glu-His-Leu-Cys(Acm)-OH) read?
**A.** 71%

**Q.** For CC[C@H](C)[C@@H]1NC(=O)[C@@H](N)CSSC[C@@H](C(=O)O)NC(=O)[C@H](CC(C)C)NC(=O)[C@H](Cc2c[nH]cn2)NC(=O)[C@H](CCO)NC1=O [C*IHseHLC*], which ring closure, yield after HPLC (from H-Cys(Acm)-Ile-Hse-His-Leu-Cys(Acm)-OH) is on record?
**A.** 56%

**Q.** Which ring closure, yield after HPLC (from H-Cys(Acm)-Ile-Met(O2)-His-Leu-Cys(Acm)-OH) does the source give for CC[C@H](C)[C@@H]1NC(=O)[C@@H](N)CSSC[C@@H](C(=O)O)NC(=O)[C@H](CC(C)C)NC(=O)[C@H](Cc2c[nH]cn2)NC(=O)[C@H](CCS(C)(=O)=O)NC1=O [C*IMet(O2)HLC*] here?
**A.** 68%

**Q.** Which ring closure, yield after HPLC (from H-Cys(Acm)-Ile-Asn-His-Leu-Cys(Acm)-OH) does the source give for CC[C@H](C)[C@@H]1NC(=O)[C@@H](N)CSSC[C@@H](C(=O)O)NC(=O)[C@H](CC(C)C)NC(=O)[C@H](Cc2c[nH]cn2)NC(=O)[C@H](CC(N)=O)NC1=O [C*INHLC*] here?
**A.** 85%

**Q.** For CC[C@H](C)[C@@H]1NC(=O)[C@@H](N)CSSC[C@@H](C(N)=O)NC(=O)[C@H](CC(C)C)NC(=O)[C@H](Cc2c[nH]cn2)NC(=O)[C@H](CC(N)=O)NC1=O [C*INHLC*—NH2], which ring closure, yield after HPLC (from H-Cys(Acm)-Ile-Asn-His-Leu-Cys(Acm)-NH2) is on record?
**A.** 18%

**Q.** With CC[C@H](C)[C@@H]1NC(=O)[C@@H](N)CSSC[C@@H](C(=O)O)NC(=O)[C@H](CC(C)C)NC(=O)[C@H](Cc2c[nH]cn2)NC(=O)[C@H](COC)NC1=O [C*IS(OMe)HLC*] as the compound, how does the ring closure, yield after HPLC (from H-Cys(Acm)-Ile-Ser(OMe)-His-Leu-Cys(Acm)-OH) read?
**A.** 52%

**Q.** With CC[C@H](C)[C@@H]1NC(=O)[C@@H](N)CSSC[C@@H](C(=O)O)NC(=O)[C@H](CC(C)C)NC(=O)[C@H](Cc2c[nH]cn2)NC(=O)[C@H](Cc2ccc(O)cc2)NC1=O [C*IYHLC*] as the compound, how does the ring closure, yield after HPLC (from H-Cys(Acm)-Ile-Tyr-His-Leu-Cys(Acm)-OH) read?
**A.** 52%

**Q.** For CC(C)C[C@@H]1NC(=O)[C@H](Cc2c[nH]cn2)NC(=O)[C@H](CC(=O)O)NC(=O)[C@H](c2ccccc2)NC(=O)[C@@H](N)CSSC[C@@H](C(=O)O)NC1=O [C*PhgDHLC*], which ring closure, yield after HPLC (from H-Cys(Acm)-Phg-Asp-His-Leu-Cys(Acm)-OH) is on record?
**A.** 64%

**Q.** Which ring closure, yield after HPLC (from H-Cys(Acm)-Tic-Asp-His-Leu-Cys(Acm)-OH) does the source give for CC(C)C[C@@H]1NC(=O)[C@H](Cc2c[nH]cn2)NC(=O)[C@H](CC(=O)O)NC(=O)[C@@H]2Cc3ccccc3CN2C(=O)[C@@H](N)CSSC[C@@H](C(=O)O)NC1=O [C*TicDHLC*] here?
**A.** 30%

**Q.** For CC(C)C[C@@H]1NC(=O)[C@H](Cc2c[nH]cn2)NC(=O)[C@H](CC(=O)O)NC(=O)[C@H](C(C)(C)C)NC(=O)[C@@H](N)CSSC[C@@H](C(=O)O)NC1=O [C*TleDHLC*], which ring closure, yield after HPLC (from H-Cys(Acm)-Tle-Asp-His-Leu-Cys(Acm)-OH) is on record?
**A.** 69%
